Key:
plasmid Nf-kappaB-luc = experiment: Capacity to form complexes with large-sized DNA (plasmid); format: binding; settings: charge ratio (+/−)=6/1 manages to retain DNA migration
Method: In a similar form to the previous experiments, electrophoresis was carried out with different samples, placing them a ladder type marker which measures up to 5000 pb in the well previous to it.

[1] = target: T1, Insulin (recombinant human insulin) (Homo sapiens, UniProt P01308); experiment: pH stability test of IM16 dendrimer-insulin complexes; format: physicochemical; settings: 0.5 U insulin; pH 5, 6, 7.4, 9, 10; 15 minutes
T1 construct: Despite having its molecular weight (5825 g/mol) and establishing an average of 4 (−) charges; purchased Novo Nordisk Actrapid (trade name; no catalogue number given)
Method: The test on the behaviour of the dendrimer-drug complexes previously formed on varying the medium's pH was again performed by evaluating the delay in polyacrylamide gel of the dendrimer bound to the drug with respect to free dendrimer, following a process similar to that used in the tests to determine the dendrimer-drug bond, although introducing a stage of variation of pH in the complex formation process of prior to electrophoresis, process that was performed in the following way: • Complex formation: It was performed in a final mixture volume of 30 μl, which is the maximum volume for loading in the gel. To do this, we started from the necessary quantity of dendrimer which provides a band perfectly identifiable by staining with silver nitrate in the gel once the electrophoresis has been performed: 20 μl of a 100 μM solution, which correspond to 1.2×10^15 molecules. […] An incubation was performed of the dendrimer and drug mixtures at 37° C. during 1 hour to give time for a more thermodynamically stable complex to form, although more time may be needed for its formation. For each pH to test, 2 mixtures were incubated. […]

U87-MG cells [2] = experiment: Toxicity in U-87-MG cells: LDH in the supernatant
Description: The concentrations and volumes of each one of these compounds were the same used in the test performed with MTT. The commercial kit Cytotoxicity Detection KitPLUS (LDH), from Roche Applied Science was used to determine lactate dehydrogenase, following the manufacturer's instructions.

ODN TAR = experiment: Stability of the NN-ODN dendriplex in complete medium with 10% foetal calf serum; settings: TAR+NN 2/1, complete medium with 10% FCS
Method: With the intention of seeing the stability of the dendriplexes in the presence of serum over time, a test was performed wherein to the samples was added complete medium which contained 10% foetal calf serum (FCS). The following samples were prepared with TAR as ODN:
As indicated, 20′ after its preparation 100 μl of complete medium were added to samples 1, 2 and 3. From each one of the samples 45 μl aliquots were taken after 40 minutes, 4 hours and 17 hours and they were subjected to electrophoresis in agarose gel. The samples were loaded in the gel following the ordering of its numbering from left to right, having previously situated a 100 bp ladder marker. In the last point (17 hours), only the 2/1 ratio complex was tested against ODN without NN. The results are shown in FIG. 7, wherein there appears a date on each one of the wells corresponding to samples with TAR+NN in 2/1 ratio.

U87-MG cells [3] = experiment: Toxicity in U-87-MG cells: tests with MTT
Method: A test with U-87-MG cells was performed, wherein the effect of the dendrimers on the viability of said lines was studied at different times. To do this, 15000 (24 hour incubations), 7000 (3 day incubations) or 1500 (7 day incubations) cells per well were plated in 96-well plates. The cells were incubated with different concentrations (1 μM, 5 μM and 10 μM) either NN dendrimer or NN16 dendrimer, during 24 hours, 3 days and 7 days. […] Two different positive controls were also used: cells treated with 7% DMSO and cells treated with 1% Triton X-100.
In the case of Superfect, three doses were tested, the optimum dose recommended by the manufacturer (2.5 μl), a lower dose (1.25 μl) and another higher dose (5 μl). With regard to Polyfect, specifically designed for adherent cells, the three doses tested were: optimum dose (0.6 μl), lower dose (0.3 μl) and higher dose (1.2 μl).
After each corresponding incubation time, a test was performed with MTT analogous to that described in Example 38. At the absorbance value obtained in the untreated cells (C−) it was given the value of 1 and the moiety of the absorbencies produced was used to refer to it.

T1 sequence (P01308 25-54 limits assumed): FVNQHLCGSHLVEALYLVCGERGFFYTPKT
T1 sequence (P01308 90-110 limits assumed): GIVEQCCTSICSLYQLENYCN

## C[N+](C)(C)CCO[Si](C)(C)CCC[Si](C)(CCC[Si](CCC[Si](C)(CCC[Si](C)(C)OCC[N+](C)(C)C)CCC[Si](C)(C)OCC[N+](C)(C)C)(CCC[Si](C)(CCC[Si](C)(C)OCC[N+](C)(C)C)CCC[Si](C)(C)OCC[N+](C)(C)C)CCC[Si](C)(CCC[Si](C)(C)OCC[N+](C)(C)C)CCC[Si](C)(C)OCC[N+](C)(C)C)CCC[Si](C)(C)OCC[N+](C)(C)C.[I-].[I-].[I-].[I-].[I-].[I-].[I-].[I-] [IM8, 2G-[Si(OCH2CH2NMe3^+I^−)]8]
Plasmid Nf-kappaB-luc
  complex formation with plasmid: capable of forming complexes with the plasmid used

## C[N+](C)(C)CCO[Si](C)(CCC[Si](C)(CCC[Si](CCC[Si](C)(CCC[Si](C)(OCC[N+](C)(C)C)OCC[N+](C)(C)C)CCC[Si](C)(OCC[N+](C)(C)C)OCC[N+](C)(C)C)(CCC[Si](C)(CCC[Si](C)(OCC[N+](C)(C)C)OCC[N+](C)(C)C)CCC[Si](C)(OCC[N+](C)(C)C)OCC[N+](C)(C)C)CCC[Si](C)(CCC[Si](C)(OCC[N+](C)(C)C)OCC[N+](C)(C)C)CCC[Si](C)(OCC[N+](C)(C)C)OCC[N+](C)(C)C)CCC[Si](C)(OCC[N+](C)(C)C)OCC[N+](C)(C)C)OCC[N+](C)(C)C.[I-].[I-].[I-].[I-].[I-].[I-].[I-].[I-].[I-].[I-].[I-].[I-].[I-].[I-].[I-].[I-] [IM16, 2G-[Si(OCH2CH2NMe3^+I^−)2]8]
[1]
  pH stability of dendrimer-insulin complex: dissociated at acid pH

## CN(CCO[Si](C)(C)CCC[Si](C)(CCC[Si](CCC[Si](C)(CCC[Si](C)(C)OCCN(C)CC[N+](C)(C)C)CCC[Si](C)(C)OCCN(C)CC[N+](C)(C)C)(CCC[Si](C)(CCC[Si](C)(C)OCCN(C)CC[N+](C)(C)C)CCC[Si](C)(C)OCCN(C)CC[N+](C)(C)C)CCC[Si](C)(CCC[Si](C)(C)OCCN(C)CC[N+](C)(C)C)CCC[Si](C)(C)OCCN(C)CC[N+](C)(C)C)CCC[Si](C)(C)OCCN(C)CC[N+](C)(C)C)CC[N+](C)(C)C.[I-].[I-].[I-].[I-].[I-].[I-].[I-].[I-] [NN, 2G-[Si(O(CH2)2N(Me)(CH2)2NMe3^+I^−)]8]
U87-MG cells [2]
  cytotoxicity (LDH), comparison: greater cytotoxicity as their concentration increases
ODN TAR
  time after which the NN dendrimer releases the ODN: 17 h
U87-MG cells [3]
  viability (MTT), untreated cells (C−) = 1: 0.6-0.75

— patent US8603493B2, “Carbosilane dendrimers, preparation method thereof and use of same” (Dendrico, S.L., priority 2005, dated 2013)
